Laboratory results taken from US10154667B2, “Broadleaf crop control with 6-arylpicoline carboxylic acids, 2-arylpyrimidine carboxylic acids, or salts or esters thereof” (Dow AgroSciences LLC, priority 2013, dated 2018).
Where two headings read alike, the source gives them in different places.

How the values were obtained:
Assay type in all cases: in vivo, Glycine max
[1] = system: ROUNDUP READY soybeans (GLXMA); test: Field evaluation with various herbicides, 46 days after treatment; settings: 46 Days After Treatment
Text: (§1) The average percent visual control of ROUNDUP READY® soybeans (GLXMA) 46 days after treatment with various herbicides with standard formulation in comparison with compound of Formula (IV) at specified rates are provided in Table 6 below. The data was the result of conducting factorial replicated field trials (4 trials) by applying the compositions at a spray pressure of 300 kPa and a spray volume of 200 L/ha. The treated plots and control plots were visually rated blind at the specified dates after application. Ratings were based on a scale of 0-100%, as discussed above, wherein 0% indicates complete growth of the undesired vegetation and 100% indicates complete prevention/eradication of the undesired vegetation.

[2] = system: ROUNDUP READY soybeans (GLXMA); test: Field evaluation with various herbicides, 30 days after treatment; settings: 30 Days After Treatment
Text: as §1, with “The” for “The average percent visual control of ROUNDUP READY® soybeans (GLXMA) 46 days after treatment with various herbicides with standard formulation in comparison with compound of Formula (IV) at specified rates are provided in Table 6 below. The”, “(3” for “(4”

[3] = system: AAD12 GLXMA (HT variety soybean); test: Greenhouse evaluation of broadleaf volunteer crop control, AAD12 soybean; settings: 2 to 3 leaf stage, after 21 days, 0 no injury, 100 complete kill
Protocol: (§2) Test plants were grown in METRO-MIX® 360 (SunGro Horticulture, Bellevue, Wash.) in 132.7 square centimeters (cm^2) plastic pots for 7-21 days in a greenhouse with an approximate 15 hour (h) photoperiod which was maintained at about 23-29° C. during the day and 22-28° C. during the night. Plants were grown to the 2 to 3 leaf stage prior to applications. Both conventional soybean crops varieties, Maverick and Resnick, and herbicide resistant (HT) varieties AAD12, AAD1, and ROUNDUP® ready soybean crops were treated.
(§3) A weighed amount, determined by the highest rate to be tested, of each test compound was placed in a 25 milliliter (mL) glass vial and was dissolved in 4 mL of a 97:3 v/v (volume/volume) mixture of acetone and dimethyl sulfoxide (DMSO), which will be referred to as General Purpose Solvent (GPS), to obtain concentrated stock solutions. […] The concentrated stock solutions obtained were diluted with 20 mL of an aqueous mixture containing water, GPS, isopropyl alcohol, ATPLUS® 411F crop oil concentrate, and TRITON® X-155 surfactant in a 46:42:12:1.0:0.02 v/v ratio to obtain spray solutions containing the highest application rates. Additional application rates were obtained by serial dilution of 12 mL of the high rate solution into a solution containing 2 mL of 97:3 v/v (volume/volume) mixture of acetone and dimethyl sulfoxide (DMSO) and 10 mL of an aqueous mixture containing water, GPS, isopropyl alcohol, ATPLUS® 411F crop oil concentrate, and TRITON® X-155 surfactant in a 46:42:12:1.0:0.02 v/v ratio to obtain 1/2X, 1/4X, 1/8X and 1/16X rates of the high rate (X). Compound requirements are based upon a 12 mL application volume at a rate of 187 L/ha. Formulated compounds were applied to the plant material with an overhead Mandel track sprayer equipped with 8002E nozzles calibrated to deliver 187 L/ha over an application area of 0.503 square meters (m^2) at a spray height of 18 inches (43 cm) above the average plant canopy height. Control plants were sprayed in the same manner with the solvent blank. The treated plants and control plants were placed in a greenhouse as described above and watered by sub-irrigation to prevent wash-off of the test compounds. After 21 days, the condition of the test plants as compared with that of the control plants was determined visually and scored on a scale of 0 to 100 percent where 0 corresponds to no injury and 100 corresponds to complete kill, and results are listed in Table 1 along with active ingredients and their respective formulations. Each score in Table 1 represents an average obtained from results of three representative experiments.

[4] = system: RoundUp Ready GLXMA (HT variety soybean); test: Greenhouse evaluation of broadleaf volunteer crop control, RoundUp ready soybean; settings: Glycine max, 504 h, greenhouse, 2 to 3 leaf stage, after 21 days, 0 no injury, 100 complete kill, read-out: Average Percent Crop Control after Treatment, RoundUp Ready GLXMA
Protocol: as §2, §3
(§4) Additional formulations with different 6-arylpicolinates were tested in the greenhouse on Maverick and RoundUp-ready soybean crops using the procedure described above. Each score in Table 2 represents an average obtained from results of three representative experiments.

[5] = system: AAD1 GLXMA (HT variety soybean); test: Greenhouse evaluation of broadleaf volunteer crop control, AAD1 soybean; settings: 2 to 3 leaf stage, after 21 days, 0 no injury, 100 complete kill
Protocol: as §2, §3

[6] = system: Resnick GLXMA (conventional soybean); test: Greenhouse evaluation of broadleaf volunteer crop control, Resnick soybean; settings: 2 to 3 leaf stage, after 21 days, 0 no injury, 100 complete kill
Protocol: as §2, §3

[7] = system: Maverick GLXMA (conventional soybean); test: Greenhouse evaluation of broadleaf volunteer crop control, Maverick soybean; settings: Glycine max, 504 h, read-out: Average Percent Crop Control after Treatment, Maverick GLXMA
Protocol: as §2, §3, §4

| SMILES | Average Percent Crop Control after Treatment, AAD12 GLXMA ([3]; 1.1 g ae/ha) | Average Percent Crop Control after Treatment, AAD12 GLXMA ([3]; 2.2 g ae/ha) | Average Percent Crop Control after Treatment, AAD12 GLXMA ([3]; 4.4 g ae/ha) | Average Percent Crop Control after Treatment, AAD12 GLXMA ([3]; 8.75 g ae/ha) | Average Percent Crop Control after Treatment, AAD12 GLXMA ([3]; 17.5 g ae/ha) | Average Percent Crop Control after Treatment, AAD1 GLXMA ([5]; 2.2 g ae/ha) | Average Percent Crop Control after Treatment, AAD1 GLXMA ([5]; 4.4 g ae/ha) | Average Percent Crop Control after Treatment, AAD1 GLXMA ([5]; 8.75 g ae/ha) | Average Percent Crop Control after Treatment, AAD1 GLXMA ([5]; 17.5 g ae/ha) | Average Percent Crop Control after Treatment, Resnick GLXMA ([6]; 1.1 g ae/ha) | Average Percent Crop Control after Treatment, Resnick GLXMA ([6]; 2.2 g ae/ha) | Average Percent Crop Control after Treatment, Resnick GLXMA ([6]; 4.4 g ae/ha) | Average Percent Crop Control after Treatment, Resnick GLXMA ([6]; 8.75 g ae/ha) | Average Percent Crop Control after Treatment, Resnick GLXMA ([6]; 17.5 g ae/ha) | further results |
| --- | --- | --- | --- | --- | --- | --- | --- | --- | --- | --- | --- | --- | --- | --- | --- |
| COc1nc(C)nc(NC(=O)NS(=O)(=O)c2cc(I)ccc2C(=O)O)n1 [Iodosulfuron] | – | – | – | – | – | – | – | – | – | – | – | – | – | – | % Crop Control ([1]; 3.5 g ai/Ha): 90% |
| COc1nc(C)nc(=NC(=O)NS(=O)(=O)c2ccccc2C(=O)O)[nH]1 [Metsulfuron] | – | – | – | – | – | – | – | – | – | – | – | – | – | – | % Crop Control ([1]; 6 g ai/Ha): 98.3%; % Crop Control ([2]; 6 g ai/Ha + 1% J'Oil): 96%; % Crop Control ([2]; 6 g ai/Ha): 89.3% |
| C[n+]1ccc(-c2cc[n+](C)cc2)cc1 [Paraquat] | – | – | – | – | – | – | – | – | – | – | – | – | – | – | % Crop Control ([1]; 300 g ai/Ha): 85%; % Crop Control ([2]; 300 g ai/Ha): 61.7% |
| COc1cc(OC)n2nc(NS(=O)(=O)c3c(C(F)(F)F)ccnc3OC)nc2n1 [Pyroxsulam] | – | – | – | – | – | – | – | – | – | – | – | – | – | – | % Crop Control ([1]; 18 g ai/Ha): 98.3% |
| COc1c(Cl)ccc(-c2nc(C(=O)O)c(Cl)c(N)c2F)c1F [drawing 11] | 85% | 93% | 100% | 100% | 100% | 87% | 100% | 100% | 100% | 83% | 92% | 100% | 100% | 100% | pest or weed control at 2.2 g/ha ([4]; 2.2 g ae/ha): 83%; pest or weed control at 4.4 g/ha ([4]; 4.4 g ae/ha): 93%; pest or weed control at 8.75 g/ha ([4]; 8.75 g ae/ha): 100%; pest or weed control at 17.5 g/ha ([4]; 17.5 g ae/ha): 100%; pest or weed control at 1.1 g/ha ([7]; 1.1 g ae/ha, greenhouse, 2 to 3 leaf stage, after 21 days, 0 no injury, 100 complete kill): 87%; pest or weed control at 2.2 g/ha ([7]; 2.2 g ae/ha, greenhouse, 2 to 3 leaf stage, after 21 days, 0 no injury, 100 complete kill): 95%; pest or weed control at 4.4 g/ha ([7]; 4.4 g ae/ha, greenhouse, 2 to 3 leaf stage, after 21 days, 0 no injury, 100 complete kill): 100%; pest or weed control at 8.75 g/ha ([7]; 8.75 g ae/ha, greenhouse, 2 to 3 leaf stage, after 21 days, 0 no injury, 100 complete kill): 100%; pest or weed control at 17.5 g/ha ([7]; 17.5 g ae/ha, greenhouse, 2 to 3 leaf stage, after 21 days, 0 no injury, 100 complete kill): 100% |
| COc1c(Cl)ccc(-c2cc(N)c(Cl)c(C(=O)[O-])n2)c1F.[K+] [drawing 12] | 100% | 100% | 100% | 100% | 100% | 100% | 100% | 100% | 100% | 99% | 100% | 100% | 100% | 100% | Average Percent Crop Control after Treatment, AAD1 GLXMA ([5]; 1.1 g ae/ha): 100%; pest or weed control at 1.1 g/ha [7]: 97% |
